Like-named read-outs stand apart in the source and are kept apart here.
What was measured:
c-Abl [1] = assay: c-Abl levels in the ER fraction, ER stress; format: cell-based
Experimental: (§1) Cells were treated with A23187 (Sigma) or Brefeldin A (Sigma).
(§2) Isolation of the ER fraction: Cells were washed with PBS, lysed in homogenization buffer (50 mM Tris-HCl, pH 8.0, 1 mM b-mercaptoethanol, 1 mM EDTA, 0.32 M sucrose and 0.1 mM PMSF), and then centrifuged at 5,000×g for 10 minutes. The supernatant was collected and centrifuged at 105,000×g for 1 hour. […] The resulting supernatant was used as the ER fraction.

c-Abl [2] = assay: Mitochondrial c-Abl kinase activity, GST-Crk(120-225) phosphorylation, ER stress; format: cell-based; conditions: anti-c-Abl immunoprecipitates of mitochondrial fraction
Experimental: (§3) The supernatant was collected and centrifuged at 10,000×g for 10 minutes. […] Protein concentration was determined by the Bio-Rad protein estimation kit.
Analysis of c-Abl activity: Cell lysates were prepared as described in Example 1 and subjected to immunoprecipitation with anti-c-Abl (K-12; Santa Cruz). The immunoprecipitates were resuspended in kinase buffer (see Example 1) containing […] of [g-32P]ATP and GST-Crk(120-225) or GST-Crk(120-212) for 15 minutes at 30° C. The reaction products were analyzed by SDS-PAGE and autoradiography.

c-Abl [3] = assay: c-Abl targeting to mitochondria under ER stress, immunofluorescence and immunoblot; format: cell-based; conditions: mitochondrial fraction
Experimental: as §1
Digital confocal immunofluorescence microscope: Cells grown on poly-D-lysine coated glass coverslips were fixed (3.7% formaldehyde in PBS, pH 7.4; 10 minutes), permeabilized (0.2% Triton X-100; 10 min), blocked for 30 minutes in media containing serum. After rinsing with PBS, immunostaining was performed by incubating the cells with 50 ng/slide of anti-c-Abl (K-12 rabbit polyclonal; Santa Cruz) and anti-grp-78 (C-20 goat polyclonal; Santa Cruz). For c-Abl and calreticulin staining, cells were incubated first with anti-c-Abl alone for 1 hour followed by blocking for 30 minutes in media containing serum. After washing with PBS, cells were then incubated with anti-calreticulin (rabbit polyclonal; StressGen). Finally, cells were incubated with a 1:250 dilution of CY-3 or Fluorescein (FITC)-conjugated anti-rabbit or anti-goat secondary antibodies (Jackson ImmunoResearch) for 1 hour. Mitochondria were stained with 0.006 ng/slide Mitotracker Green FM (Molecular Probes). Nuclei were stained with 4,6-diamino-2-phenylindole (DAPI; 1 mg/ml in PBS). Coverslips were mounted onto slides with 0.1 M Tris (pH 7.0) in 50% glycerol. Cells were visualized by digital confocal immunofluorescence and images were captured with cooled CCD camera mounted on a Zeiss Axioplan 2 microscope. Images were deconvolved using Slidebook software (Intelligent Imaging Innovations, Inc., Denver, Colo.).
as §3

MEFs = assay: Apoptosis by sub-G1 DNA in MEFs under ER stress; format: cell-based, mouse; conditions: c-Abl−/− cells
Experimental: Apoptosis assays: DNA content was assessed by staining ethanol-fixed cells with propidium iodide and monitoring by FACScan (Becton-Dickinson).

c-Abl [4] = assay: c-Abl levels in cytoplasmic and nuclear fractions, ER stress; format: cell-based
From the text: Isolation of cytoplasmic and nuclear fractions: The cytoplasmic and nuclear fractions were isolated as described in Example 1.

grp78 = grp78 expression in the ER fraction, ER stress; format: cell-based
Experimental: as §1, §2

PKCζ = assay: Cytoplasmic or mitochondrial PKCζ levels in U-937 cells, immunoblot
c-Abl [5] = assay: c-Abl translocation to mitochondria in MEFs, oxidative stress; format: cell-based, mouse
Experimental: Cells were treated with 1 mM H2O2 (Sigma) and 30 mM N-acetyl-L-cysteine (NAC; Sigma). Transient transfections were performed in the presence of calcium phosphate.
Immunofluorescence microscopy: Cells were plated onto poly D-lysine coated glass coverslips 1 day prior to H2O2 treatment (1 hour) and then fixed with 3.7% formaldehyde/PBS (pH 7.4) for 10 minutes. Cells were washed with PBS, permeabilized with 0.2% Triton X-100 for 10 minutes, washed again and incubated for 30 minutes in complete medium. The coverslips were then incubated with […] of anti-c-Abl (K-12) for 1 hour followed by Texas Red-goat anti-rabbit Ig (H+L) conjugate (Molecular Probes, Eugene, Oreg.). Mitochondria were stained with 100 nM Mitotracker Green FM (Molecular Probes, OR). Nuclei were stained with 4,6-diamino-2-phenylindole (DAPI; 1 mg/ml in PBS). Coverslips were mounted onto slides with 0.1 M Tris (pH 7.0) in 50% glycerol. Cells were visualized by digital confocal immunofluorescence and images were captured with a cooled CCD camera mounted on a Zeiss Axioplan 2 microscope. Images were deconvolved using Slidebook software (Intelligent Imaging Innovations, Inc., Denver, Colo.).
Protein concentration was determined by the Bio-Rad protein estimation kit.
Preparation of cell lysates: Whole cell lysates (WCL) were prepared as described (Kharbanda et al. (1995) Nature 376, 785-788) and analyzed for protein concentration.
Immunoprecipitation and immunoblot analysis. Soluble proteins ([…]) were incubated with anti-c-Abl (K-12; Santa Cruz Biotechnology) for 1 hour and precipitated with protein A-sepharose for 30 minutes. Immunoprecipitates and lysates ([…]) were resolved by SDS-PAGE and analyzed by immunoblotting with anti-c-Abl (24-11; Santa Cruz), anti-HSP60 (Stressgen, Victoria, British Columbia), anti-b-actin (Sigma) anti-PCNA (Calbiochem), anti-PDGF receptor (Oncogene) and anti-PKCd (Santa Cruz).

c-Abl [6] = assay: c-Abl activity in cytoplasts devoid of nuclei; format: cell-based
Experimental: (§4) Analysis of kinase activity: Cell lysates were prepared in lysis buffer (10 mM Tris-HCl, pH 7.5, 10 mM NaCl, 1 mM DTT, 0.1 mM EDTA, 3 mM MgCl2, 0.5 mM PMSF, 5 μg/ml leupeptin) containing 0.5% Nonidet P-40 and subjected to immunoprecipitation as described (Kharbanda et al. (1997) Nature 386, 732-735) with anti-c-Abl (sc-23; Santa Cruz) or mouse IgG (Santa Cruz). The immunoprecipitates were resuspended in kinase buffer (20 mM HEPES, pH 7.4, 10 mM MgCl2, 10 mM MnCl2) containing 2.5 μCi [g-32P]ATP and GST-Crk(120-225) or GST-Crk(120-212) for 20 minutes at 30° C. Anti-PKCd (sc-937; Santa Cruz) and anti-ERK1 (sc-93; Santa Cruz) immunoprecipitates were analyzed by using histone H1 and myelin basic protein (Upstate Biotecnology Inc.), respectively, as substrates. The reaction products were analyzed by SDS-PAGE and autoradiography.

cytochrome c [7] = assay: Cytochrome c release in U-937 cells, immunoblot of cytoplasmic fractions; format: cell-based, human; conditions: for cytochrome c release: U-937 cells, agent alone; for effect on H2O2-induced release of cytochrome c: U-937 cells pretreated with NAC (30 mM) or rottlerin (10 µM)
Experimental: (§5) Cells were also treated with 10 μM rottlerin (Calbiochem).
(§6) Transfections were performed with Superfect (Qiagen).
(§7) The cells were disrupted by Douce homogenization.

PKCd [8] = target: PKCd (Mus musculus, UniProt P28867); set-up: effect on H2O2-induced translocation of PKCd to mitochondria: dose or concentration left out as unconfirmed; conditions: NIH3T3 cells
Experimental: as §6
(§8) The supernatants (S1) were collected.

MCF-7/neo cells = assay: Apoptosis by sub-G1 DNA content in MCF-7/neo cells
c-Abl [9] = assay: c-Abl immune complex kinase assay, phosphorylation of GST-Crk(120-225), COS7 cells; format: cell-based
Experimental: (§9) Cell culture: COS7 cells and mouse embryonic fibroblasts (MEFs) derived from wild-type and c-Abl^−/− mice were cultured in Dulbecco's modified Eagle's medium containing 10% heat-inactivated fetal calf serum, 2 mM L-glutamine, 100 units/ml penicillin and 100 μg/ml streptomycin. DLD1 cells were grown as described (Polyak et al. (1997) Nature 389, 300-305). Cells were treated with H2O2 (Sigma), 30 mM N-acetyl-L-cysteine (NAC; Sigma) or 10 μM cis-platinum (Sigma).
as §4

PKCγ = PKCγ (Homo sapiens, UniProt P05129); assay: Cytoplasmic or mitochondrial PKCγ levels in U-937 cells, immunoblot
ATP levels = conditions: wild-type and c-Abl+ cells, H2O2
Experimental: Quantitation of ATP: ATP levels were measured using an ATP Determination Kit (Molecular Probes).

PKCd [10] = target: T1, PKCd (Homo sapiens, UniProt Q05655); assay: PKCd translocation to mitochondria in U-937 cells, immunoblot of fractions; format: cell-based; set-up: subjecting cytoplasmic and mitochondrial fractions to immunoblotting with anti-PKC antibodies; endogenous in cells; host or cells: U-937
Experimental: as §5
Mitochondria were stained with 0.006 ng/slide of Mitotracker Green FM (Molecular Probes). The slides were analyzed using a Zeiss Auxiphot fluorescence microscope coupled to a CCD camera and a power Macintosh 8100. Image analysis was performed using the IPLab Spectrum 3.1 software (Signal Analytics).
as §6, §7, §8
Mitochondria were stained with 0.006 ng/slide of Mitotracker Green FM (Molecular Probes). The slides were analyzed with a Zeiss Auxiphot fluorescence microscope coupled to a CCD camera and a power Macintosh 8100. Image analysis was performed using the IPLab Spectrum 3.1 software (Signal Analytics).

cytochrome c [11] = conditions: wild-type MEFs
Experimental: as §9

[12] = tested on: mitochondrial transmembrane potential; assay: Mitochondrial transmembrane potential, Rhodamine 123 staining, MEFs; set-up: effect on H2O2-induced change in Ψ: dose or concentration left out as unconfirmed
PKCd [13] = target: T1, PKCd; conditions: MCF-7 cells, TPA
Experimental: Cell culture and reagents: Human U-937 myeloid leukemia cells (ATCC, Rockville, Md.) were grown in RPMI 1640 medium supplemented with 10% heat-inactivated fetal bovine serum (FBS), 100 units/ml penicillin, 100 μg/ml streptomycin, and 2 mM L-glutamine. MCF-7, MCF-7/neo, MCF-7/PKCdRD and 293T cells were grown in Dulbecco's modified Eagle's medium (DMEM) containing 10% FBS. […] Cells were also treated with 10 μM rottlerin (Calbiochem).

catalase = assay: Catalase levels in MEFs; format: cell-based, mouse
From the text: As a control, degradation was inhibited when [g-S]ATP was substituted for ATP to prevent ubiquitination. […] Lactacystin, another proteosome inhibitor, was used to assess degradation of catalase in cells.

U-937 cells = assay: Apoptosis by sub-G1 DNA content in U-937 cells; format: cell-based, human

T1 sequence (Q05655 whole entry): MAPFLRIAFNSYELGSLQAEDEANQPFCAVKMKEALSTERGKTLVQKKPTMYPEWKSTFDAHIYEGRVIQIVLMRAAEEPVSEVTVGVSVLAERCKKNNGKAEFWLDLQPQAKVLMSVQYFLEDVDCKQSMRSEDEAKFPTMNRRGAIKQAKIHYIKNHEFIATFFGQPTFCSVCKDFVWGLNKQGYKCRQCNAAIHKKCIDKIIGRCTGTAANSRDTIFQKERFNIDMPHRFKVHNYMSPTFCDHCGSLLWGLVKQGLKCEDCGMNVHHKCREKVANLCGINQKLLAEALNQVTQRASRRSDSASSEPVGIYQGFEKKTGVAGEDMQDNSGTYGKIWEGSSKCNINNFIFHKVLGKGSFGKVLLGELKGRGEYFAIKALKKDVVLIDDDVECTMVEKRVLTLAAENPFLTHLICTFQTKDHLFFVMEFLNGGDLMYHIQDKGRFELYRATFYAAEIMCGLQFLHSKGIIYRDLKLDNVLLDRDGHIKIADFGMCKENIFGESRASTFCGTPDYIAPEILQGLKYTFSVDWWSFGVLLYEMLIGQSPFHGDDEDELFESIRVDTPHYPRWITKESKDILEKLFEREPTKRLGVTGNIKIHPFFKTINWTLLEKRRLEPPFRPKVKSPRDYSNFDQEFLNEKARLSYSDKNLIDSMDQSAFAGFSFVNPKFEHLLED
Sequence of PKCd (Mus musculus, UniProt P28867) (P28867 whole entry): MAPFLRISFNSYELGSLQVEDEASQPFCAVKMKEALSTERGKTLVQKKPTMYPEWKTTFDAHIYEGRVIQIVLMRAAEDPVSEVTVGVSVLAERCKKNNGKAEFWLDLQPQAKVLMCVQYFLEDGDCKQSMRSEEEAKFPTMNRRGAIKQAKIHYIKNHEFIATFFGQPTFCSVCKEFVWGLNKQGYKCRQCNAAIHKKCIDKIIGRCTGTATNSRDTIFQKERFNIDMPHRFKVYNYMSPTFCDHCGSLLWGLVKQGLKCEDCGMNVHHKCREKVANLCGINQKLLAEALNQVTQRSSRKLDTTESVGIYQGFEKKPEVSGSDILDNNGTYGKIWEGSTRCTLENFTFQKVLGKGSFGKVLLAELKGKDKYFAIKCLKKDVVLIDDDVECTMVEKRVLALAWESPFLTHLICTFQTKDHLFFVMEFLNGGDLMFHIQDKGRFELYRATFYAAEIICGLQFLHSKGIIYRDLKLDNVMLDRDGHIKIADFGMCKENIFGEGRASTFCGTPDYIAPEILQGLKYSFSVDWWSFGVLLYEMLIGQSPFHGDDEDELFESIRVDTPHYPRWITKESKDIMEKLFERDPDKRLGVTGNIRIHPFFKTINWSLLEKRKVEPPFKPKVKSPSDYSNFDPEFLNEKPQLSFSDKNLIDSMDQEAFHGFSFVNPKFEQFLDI

## C[C@H]1CCC/C=C/[C@@H]2C[C@H](O)C[C@H]2[C@H](O)/C=C/C(=O)O1 [Brefeldin A]
c-Abl [1]
  c-Abl levels in the ER fraction: decreases
c-Abl [2]
  mitochondrial c-Abl activity: increases in mitochondrial c-Abl activity
c-Abl [3]
  c-Abl protein in the mitochondrial fraction, immunoblot: increases in c-Abl protein
MEFs
  induction of apoptosis: abrogated
c-Abl [4]
  c-Abl levels in the cytoplasm or nucleus: no detectable effect
grp78
  expression of grp78: increases in grp78

## OO [H2O2, hydrogen peroxide]
PKCζ; H2O2
  mitochondrial levels of PKCζ: little if any effect
c-Abl [5]; MEFs following H2O2, approximately 4% without treatment
  total c-Abl that localizes to mitochondria: approximately 20%
c-Abl [5]; MEFs, 0.5 to 1 hour of H2O2 treatment
  increase in mitochondrial c-Abl protein, densitometric scanning: > 5 fold
c-Abl [6]
  c-Abl activity in cytoplasts: induction of c-Abl activity
Cytochrome c [7]
  cytochrome c release: induces cytochrome c release
PKCd [8]; H2O2
  localization of PKCd to mitochondria: localization of PKCd to mitochondria
MCF-7/neo cells
  apoptosis: induction of apoptosis
c-Abl [9]; COS7 cells exposed to H2O2, GST-Crk(120-225) substrate
  stimulation of the Crk kinase activity of anti-c-Abl immunoprecipitates: 4-5 fold
c-Abl [9]; H2O2 exposure
  time of maximal induction of c-Abl activity: 30 to 60 min
c-Abl [9]; exposure to 1 mM H2O2
  induction of c-Abl activity: 5 fold
PKCγ; H2O2
  mitochondrial levels of PKCγ: little if any effect
ATP levels
  ATP levels: depletion of ATP
PKCd [10]; 1 mM H2O2
  mitochondrial PKCd: increases in mitochondrial PKCd
Cytochrome c [11]
  cytochrome c in cytoplasmic lysates: increased levels of cytochrome c
[12]; wild-type cells, H2O2
  mitochondrial transmembrane potential (Ψ): substantially diminished

## CC(=O)N[C@@H](CS)C(=O)O [NAC, N-acetyl-L-cysteine]
c-Abl [5]; MEFs
  effect on H2O2-induced translocation of c-Abl to mitochondria: inhibited
Cytochrome c [7]
  effect on H2O2-induced release of cytochrome c: blocks
c-Abl [9]; 30 mM NAC
  effect on H2O2-induced phosphorylation of GST-Crk(120-225) by c-Abl: inhibited
PKCd [10]; 30 mM NAC
  effect on H2O2-induced localization of PKCd to mitochondria: inhibits

## CCCCCCCCCCCCCC(=O)O[C@@H]1[C@@H](C)[C@@]2(O)[C@@H](C=C(CO)C[C@]3(O)C(=O)C(C)=C[C@@H]23)[C@H]2C(C)(C)[C@]12OC(C)=O [TPA]
PKCζ; TPA
  cytoplasmic or mitochondrial levels of PKCζ: no detectable effect
PKCd [13]
  translocation of PKCd to mitochondria: translocates to mitochondria
Cytochrome c [7]
  cytochrome c release: cytochrome c release
MCF-7/neo cells
  apoptosis: induction of apoptosis
PKCγ; TPA
  cytoplasmic or mitochondrial levels of PKCγ: no detectable effect
PKCd [10]; 250 nM TPA, 100 nM bryostatin, 0.5 units/ml PLC, 10 μM DOG
  translocation of PKCd to mitochondria: increases in mitochondrial PKCd
PKCd [10]; 250 nM TPA, scanned immunoblots
  percent PKCd translocation to mitochondria: approximately 40%

## N.N.[Cl][Pt][Cl] [cisplatin, cis-platinum]
c-Abl [6]
  c-Abl activity in cytoplasts: no detectable effect

## CC(=O)N[C@@H](CSC(=O)[C@]1([C@@H](O)C(C)C)NC(=O)[C@H](C)[C@@H]1O)C(=O)O [lactacystin]
catalase; c-abl−/−arg−/− cells
  catalase levels: little if any effect
catalase; wild-type MEFs
  catalase levels: increase in catalase levels

## CC(=O)c1c(O)c(C)c(O)c(Cc2c(O)c3c(c(C(=O)/C=C/c4ccccc4)c2O)OC(C)(C)C=C3)c1O [rottlerin]
U-937 cells; rottlerin alone
  apoptosis, sub-G1 DNA content: low level of apoptosis
U-937 cells; rottlerin and TPA
  effect on apoptotic response to TPA: significantly attenuated
c-Abl [5]; MEFs
  effect on H2O2-induced translocation of c-Abl to mitochondria: inhibited
c-Abl [5]; MEFs, rottlerin alone
  constitutive levels of mitochondrial c-Abl: no effect
Cytochrome c [7]
  effect on H2O2-induced release of cytochrome c: blocked
  cytochrome c release: detectable release of cytochrome c
Cytochrome c [7]; U-937 cells pretreated with rottlerin before TPA
  effect on TPA-induced cytochrome c release: significantly blocks
PKCd [8]; rottlerin
  effect on H2O2-induced translocation of PKCd to mitochondria: inhibits
PKCd [10]; 10 μM rottlerin
  effect on TPA-induced localization of PKCd to mitochondria: abrogated

## cyclosporin A
[12]; wild-type MEFs pretreated with cyclosporin A
  effect on H2O2-induced change in Ψ: abrogated
